No end group written: not given here.

T1 sequence (P01375 77-233 limits assumed): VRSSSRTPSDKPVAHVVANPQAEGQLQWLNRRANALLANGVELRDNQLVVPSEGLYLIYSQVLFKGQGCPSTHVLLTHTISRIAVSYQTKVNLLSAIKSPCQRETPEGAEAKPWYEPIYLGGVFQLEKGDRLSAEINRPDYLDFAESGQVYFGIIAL

This assay addresses T1, human TNFα (Homo sapiens, UniProt P01375).
T1 construct: purchased Biosource, Camarillo, Calif
Briefly: p55 receptor/IgG fusion protein binding assay (inhibition of TNFα capture by p55-Ig coated plate). To be noted: human recombinant TNFα 25 ng/ml preincubated with peptide; relative to TNFα in the absence of peptide; read-out: IC50 (concentration necessary to inhibit TNFα by 50%), inhibition of binding of TNFα to p55TNFr-IgG chimeric construct. As to the method: In order to screen compounds for their ability to block TNFα binding to the TNF p55 receptor, an assay has been designed using TNFα and a p55/IgG fusion protein in place of monovalent, non-fusion p55 TNF receptor protein. This assay was designed to identify peptides which bind to human TNFα and thereby prevent the capture of the TNFα by a microtiter plate coated with p55-Ig fusion protein. A constant concentration of human TNFα is preincubated with the test peptide and then incubated on the p55-Ig coated microtiter wells. Bound TNFα is detected using a specific antisera and an alkaline phosphatase-conjugated probe. An active peptide will reduce the amount of human TNFα bound to the well relative to control wells in which TNFα but no peptide was added.
A 96-well, U-bottom polyvinylchloride microtiter plate was coated with 50 μl/well of p55-Ig fusion protein at 5 μg/ml in 0.01M sodium phosphate, 0.15M sodium chloride (PBS) by incubation overnight at 4° C. or 2 hours at 37° C. The fusion protein, which consists of a p55 TNF receptor protein portion and an IgG portion, can be produced as disclosed in U.S. application Ser. No. 08/010,406 filed Jan. 29, 1993 which is incorporated herein by reference. The plate was washed three times with 0.05% Tween-20 in PBS, then blocked, by adding 150 μl/well of assay buffer (10 mM N-2-hydroxyethylpiperazine-N'-[…] (HEPES) pH 7.2, containing 0.1% porcine gelatin, 0.1% Tween-80, and 0.01% sodium azide) and continuing incubation for 1 hour at 37° C. or at 4° C. for 1-7 days.
Lyophilized peptides to be tested were weighed in tared 12×75 mm polystyrene tubes and reconstituted to a concentration of 1.2 mM with assay buffer. Each suspension was sonicated in a water bath for 1-5 minutes and vortexed 15-30 seconds to disperse large particles. Serial dilutions of each peptide suspension were prepared using assay buffer in a 96-well polystyrene microtiter plate. Additional wells received Fab fragment of the mouse/human monoclonal anti-human TNFα antibody cA2 (positive control) or assay buffer (negative control). […] The polystyrene dilution plate was then sealed and incubated 1 hour at room temperature on an orbital mixer set at moderate speed.
Following the sample preincubation, blocker was discarded from the p55-Ig coated plate and blotted dry. Aliquots (50 μl) of each peptide or control were transferred into duplicate wells on the p55-Ig coated plate which was then sealed and incubated 1 hour at 37° C. Duplicate wells containing only assay buffer were included as a plate blank. After incubation the p55-Ig plate was washed three times with 0.05% Tween-20 in PBS.
To detect TNFα captured by the p55-Ig plate, all wells were incubated in succession with polyclonal rabbit anti-human TNFα (Genzyme, Boston, Mass.; 1:500 in assay buffer, 50 μl/well), biotinylated goat anti-rabbit Ig (H&L) (Vector Laboratories, Burlingame, Calif.; 1 μg/ml in assay buffer, 50 μl/well) and streptavidin-alkaline phosphatase conjugate (Pierce, Rockford, Ill.; 1 μg/ml in assay buffer, 50 μl/well). All incubations were for 1 hour at 37° C. and after each incubation the plate was washed three times with 0.05% Tween-20 in PBS. Fifty microliters of alkaline phosphatase substrate solution (alkaline buffer (Sigma, St. Louis, Mo.) diluted 1:500 in deionized water plus one 5 mg tablet of p-nitrophenyl phosphate (Sigma, St. Louis, Mo.) per 5 ml of diluted buffer) was added to all wells and incubation continued for 20 minutes at room temperature. Color development was stopped by adding to all wells 50 μl of 3N sodium hydroxide. The optical density (OD) at 405 nm was measured on a microtiter plate reader (Molecular Devices Vmax plate reader), with the plate blank wells subtracted as background. The activity of each peptide was then expressed as the percent inhibition of TNFα capture by the p55-Ig plate, relative to the amount of TNFα captured in wells containing only assay buffer (negative control), as follows: […]
As for “Ac-DILLTQSPAILSVSPGERVSFS-NH2 [SEQ ID NO:6, Acetyl-aspartyl-isoleucyl-leucyl-leucyl-threonyl-glutaminyl-seryl-prolyl-alanyl-isoleucyl-leucyl-seryl-valyl-seryl-prolyl-glycyl-glutamyl-arginyl-valyl-seryl-phenylalanyl-serine-amide]”, the IC50 turned out to be 2.53 mM.

On to “Ac-FSNHWMNW-NH2 [SEQ ID NO:9, Acetyl-phenylalanyl-seryl-asparaginyl-histidyl-tryptophyl-methionyl-asparaginyl-tryptophan-amide]”, for which the IC50 is 0.06 mM.

On to “Ac-FSNHWMNWVR-NH2 [SEQ ID NO:2, Acetyl-phenylalanyl-seryl-asparaginyl-histidyl-tryptophyl-methtonyl-asparaginyl-tryptophyl-valyl-arginine-amide]”, for which the IC50 came to 0.41 mM.

On to “Ac-INTVESEDIADYYCQQSHSW-NH2 [SEQ ID NO:8, Acetyl-isoleucyl-asparaginyl-threonyl-valyl-glutamyl-seryl-glutamyl-aspartyl-isoleucyl-alanyl-aspartyl-tyrosyl-tyrosyl-cysteinyl-glutaminyl-glutaminyl-seryl-histidyl-seryl-tryptophan-amide]”, for which the IC50 is 1.11 mM.

Regarding “Ac-LIKYASQSMSGI-NH2 [SEQ ID NO:1, Acetyl-leucyl-tsoleucyl-lysyl-tyrosyl-alanyl-seryl-glutaminyl-seryl-methionyl-seryl-glycyl-isoleucine-amide]”, the IC50 turned out to be 1.88 mM.

Turning to “Ac-TDLRTEDTGVYYCSRNYYGSTY-NH2 [SEQ ID NO:5, Acetyl-threonyl-aspartyl-leucyl-arginyl-threonyl-glutamyl-aspartyl-threonyl-glycyl-valyl-tyrosyltyrosyl-cysteinyl-seryl-arginyl-asparaginyl-tyrosyl-tyrosyl-glycyl-seryl-threonyl-tyrosine-amide]”, the IC50 worked out at 1.13 mM.

For the substance “Ac-YAESVKGRFTISRDDSKSAVYL-NH2 [SEQ ID NO:3, Acetyl-tyrosyl-alanyl-glutamyl-seryl-valyl-lysyl-glycyl-arginyl-phenylalanyl-threonyl-isoleucyl-seryl-arginyl-aspartyl-aspartyl-seryl-lysyl-seryl-alanyl-valyl-tyrosyl-leucine-amide]”, the IC50 stood at 0.29 mM.

In the case of “Ac-YYSQQSHSWPFTF-NH2 [SEQ ID NO:7, Acetyl-tyrosyl-tyrosyl-seryl-glutaminyl-glutaminyl-seryl-histidyl-seryl-tryptophyl-prolyl-phenylalanyl-threonyl-phenylalanine-amide]”, the IC50 came to 1.08 mM.

For the substance “RQSPEKGLEWVAEIRSKSI-NH2 [SEQ ID NO:4, Arginyl-glutaminyl-seryl-prolyl-glutamyl-lysyl-glycyl-leucyl-glutamyl-tryptophyl-valyl-alanyl-glutamyl-isoleucyl-arginyl-seryl-lysyl-seryl-isoleucine- amide]”, the IC50 stood at 1.02 mM.

For the origin of these results see US5519000A, “Tumor necrosis factor inhibitors” (Centecor, Inc., priority 1994, dated 1996).
